Literature values as cited in patent publication US11930809B2, “Preservation of biomaterial properties and methods of storing” (LIFELINE SCIENTIFIC, INC., priority 2012, dated 2024).

How the values were obtained:
[1] = tested on: chondrocytes in articular cartilage; settings: conventional cryopreservation by freezing in a solution that includes DMSO
[2] = early Phase clinical studies

## COC(=O)C1=CO[C@@H](O)[C@@H]2C(CO)=CC[C@H]12 [genipin]
TIMP-1
  expression of TIMP-1: upregulate the expression of TIMP-1

## C[S+](C)[O-] [DMSO, dimethyl sulfoxide]
[1]
  death of chondrocytes in articular cartilage: 80-100%

## PCK3145: synthetic peptide corresponding to amino acids 31-45 of prostate secretory protein 94 (EWQTDNCETCTCYET; UniProt P08118 51-65, looked up, fragment)
[2]
  tolerability: well tolerated
